# Legend:
# [1] = Deliquescence, swelling and dissolution in CO2 in a high-pressure view cell near room temperature; format: physicochemical; settings: for solubility / miscibility in liquid CO2: BGLU at 23.0° C., 60.5 bar
# From the text: The interaction of BGLU in carbon dioxide was examined in a high-pressure view cell. The BGLU was exposed to carbon dioxide at near room temperature and a pressure of from 35 to 40 bar.
# The procedure according to Example 1 was repeated except that the carbon dioxide pressure was 55.9 bar. A solid to liquid transition (i.e., deliquescence) of the BGLU was observed. […] See FIG. 3, Panel (C) and FIG. 3, Panel (D). Upon reaching liquid-vapor equilibrium pressure, the liquid carbon dioxide formed a separate layer on top of the viscous melt containing carbon dioxide.
# BGLU is a white solid that melts at 132° C. under atmospheric pressure conditions (FIG. 3, Panel (A)). However, as BGLU is exposed to CO2 near room temperature (23.0° C.) in a conventional high-pressure view cell, it absorbs CO2 and becomes “wetted” with CO2 at a pressure of 35-40 bar. The white solid appears as a salt does in a humid environment. Furthermore, at a gaseous CO2 pressure of 55.9 bar a solid-to-liquid transition (deliquescence) occurs (FIG. 3, Panel (B)). This is analogous to the deliquescence of hygroscopic materials absorbing atmospheric moisture. […] Upon reaching the liquid-vapor equilibrium pressure, the liquid CO2 forms a separate layer on top of the viscous melt containing CO2. However, the melt easily mixes with the upper layer of liquid CO2 on stirring and forms a single-phase liquid mixture in contact with the gaseous CO2 phase (FIG. 3, Panel (E)). Further addition of CO2 only dilutes this liquid phase (FIG. 3F). Although, CO2-induced swelling (Rover et al., (1999) Macromolecules 32: 8965-8973) and CO2-assisted melting point depression (Zhang & Handa, (1997) Macromolecules 30: 8505-8507.) have been reported in polymers by sorption of CO2 under high pressures, the materials are not readily miscible in liquid and supercritical CO2, indicating the lack of a significant attractive interaction.
# [2] = Solubility and cloud-point behaviour in supercritical CO2 at 40 °C; format: physicochemical; settings: for miscibility with CO2 from cloud-point data: scCO2, 40.0° C., relatively low pressures, up to 30% (wt); for solubility behaviour in supercritical CO2: supercritical CO2, 40° C.
# Protocol: The solubility of BGLU and AGLU in supercritical carbon dioxide were examined at 40° C. […] The behavior is illustrated in FIG. 3. At the cloud point pressure, phase separation commences between the supercritical carbon dioxide and the sugar ester melt. Upon lowering the pressure, the material reappears in the solid state (see FIG. 4).
# The cloud-point pressures of these systems in scCO2 were examined at 40.0° C. As in the subcritical case, initially the solid melts and swells (for AGLU and BGLU) and all three peracetylated sugars readily go into a single-phase, scCO2 system. A plot of the cloud-point pressure versus the weight percent for AGLU, BGLU, and BGAL dissolved in supercritical CO2 at 40.0° C. is given in FIG. 4. At the cloud-point pressure, phase separation begins between scCO2 and the sugar ester. Upon lowering the pressure, the material reappears in the solid state. No cloud-point measurements were made above 30% (wt) due to limitations arising from the volume of the view cell and the rapid swelling of the sample in the cases of AGLU and BGLU.
"deliquescence point, amount lower than that of BGLU ([1]; difference relative to BGLU)",miscibility with CO2 from cloud-point data [2],solubility behaviour in supercritical CO2 [2],"concentration in the CO2-induced melt ([1]; approximate estimate, melt can be diluted with liquid or scCO2 in any proportion)",swelling of the melt on CO2 absorption ([1]; changes in gaseous CO2 pressure of only 2 and 3 bar above deliquescence pressure),"gaseous CO2 pressure at which solid-to-liquid transition (deliquescence) occurs ([1]; gaseous CO2, 23.0° C., high-pressure view cell)",CO2 pressure at which the solid absorbs CO2 and becomes wetted ([1]; near room temperature (23.0° C.)),Structure (SMILES),deliquescence in CO2 ([1]; contact with CO2),solubility / miscibility in liquid CO2 [1]
6-7 bar,complete miscibility,"melted, swelled, and readily dissolved",–,–,–,–,"CC(=O)OC[C@H]1O[C@H](OC(C)=O)[C@H](OC(C)=O)[C@@H](OC(C)=O)[C@@H]1OC(C)=O [AGLU, alpha 1,2,3,4,6-pentaacetyl-D-glucose]",–,–
–,–,–,–,–,–,–,"CC(=O)OC[C@H]1O[C@@H](OC(C)=O)[C@H](OC(C)=O)[C@@H](OC(C)=O)[C@H]1OC(C)=O [BGAL, beta 1,2,3,4,6-pentaacetyl β-D-galactose]",does not exhibit deliquescence,readily soluble
–,complete miscibility,"melted, swelled, and readily dissolved",more than 80 wt %,swells to many times its original volume,55.9 bar,35-40 bar,"CC(=O)OC[C@H]1O[C@@H](OC(C)=O)[C@H](OC(C)=O)[C@@H](OC(C)=O)[C@@H]1OC(C)=O [BGLU, beta 1,2,3,4,6-pentaacetyl-D-glucose]",–,complete miscibility
